Experimental data: US20250268910A1 (priority 2022, published 2025)

What was measured:
[1] = tested on: citric acid-induced cough in guinea pigs; experiment: In vivo citric acid-induced cough in guinea pigs (whole body plethysmograph); settings: for cough incubation period: p<0.05 vs saline control (232 seconds)
Procedure: As depicted in FIG. 1, cough induction is conducted by placing guinea pigs into a whole body plethysmograph (WBP) equipped with a Aeroneb™ vibrating mesh nebulizer, and including pressure transducers and detection equipment (EMKA technologies). A primary microphone is supplied (EMKA Technologies) for acoustic confirmation of cough frequency in the form of a digital trace using the EMKA software.
A secondary microphone (T1 True Wireless Earphone, QCY®) also is placed in the chamber and connected to a smartphone via Bluetooth to enable the observers to hear the audible sounds during the test. A bias flow rate of 2 L/min is used to continuously draw either atmospheric air (during the fresh air period) or aerosolized citric acid from the nebulizer into the WBP and expel it out through an exhaust pipe. Chamber pressure in the WBP is set to be between −10 to −30 Pa relative to ambient pressure.
Prior to the citric acid challenge, the guinea pigs are administered (intraperitoneal injection) with vehicle control, positive control or test compound (where applicable) with different dosage (Table 2) and placed individually into the WBP for at least 5 minutes in order to habituate.
The procedure was as follows: Injection→mice in box having citric acid for 10 mins (counting the cough)→box then fill with air for 5 mins (counting the cough)→mice move to recovery cage.
Appropriate concentration of citric acid is used to generate aerosol and deliver to WBP for 10 minutes with constant recording of pressure measurements. The mean concentration of citric acid was 1283.1±137.2 μg/L. Upon completion of citric acid challenge, the guinea pig is allowed to recover and continue recording of cough counts for another 5 minutes. Subsequently, the guinea pigs are closely monitored in recovery cage for full recovery from the challenge and that no adverse events were present before returning the animals to its home cage. Cough counts (CCnt) are recorded over a period of at least 10 mins, starting from citric acid stimulation and cough incubation period (CIP) are defined as the time it takes to cough for the first time after citric acid stimulation.
The cough response during citric acid challenge and post-treatment recovery is carefully monitored using: • continuous pressure monitoring (plethysmography monitoring software) • acoustic confirmation of cough using microphones (primary and secondary) • visual confirmation of cough through posture change.
The data were analysed using Oneway ANOVA (*p<0.05, **p<0.01, ***p<0.001, ****p<0.0001) when compared to saline control, and each column represents Mean±SEM.

human α7 nAChR subtype = target: T1, human α7 nAChR subtype (Homo sapiens, UniProt P36544); experiment: biochemical; assay type: binding
T1 construct: expressed in transfected cells; host or cells: SH-SY5Y cells (membranes)
T1 sequence (P36544 23-502): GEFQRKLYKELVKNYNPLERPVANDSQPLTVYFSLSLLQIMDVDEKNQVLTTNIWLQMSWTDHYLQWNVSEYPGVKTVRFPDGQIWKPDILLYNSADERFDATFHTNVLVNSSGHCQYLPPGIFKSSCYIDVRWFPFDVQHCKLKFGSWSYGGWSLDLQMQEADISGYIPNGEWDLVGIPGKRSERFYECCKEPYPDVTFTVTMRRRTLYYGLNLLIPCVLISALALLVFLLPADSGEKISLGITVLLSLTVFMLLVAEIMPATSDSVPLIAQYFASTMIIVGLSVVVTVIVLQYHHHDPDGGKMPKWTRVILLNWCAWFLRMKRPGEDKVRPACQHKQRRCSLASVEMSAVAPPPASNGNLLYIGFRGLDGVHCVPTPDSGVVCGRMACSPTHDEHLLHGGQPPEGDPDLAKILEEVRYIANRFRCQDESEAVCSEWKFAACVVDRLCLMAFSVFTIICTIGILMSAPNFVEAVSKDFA

SMILES	citric acid-induced cough counts (number of coughs) ([1]; high concentration 15 mg/kg intraperitoneal, p<0.05 vs saline control (13 coughs))	cough incubation period ([1]; high concentration 15 mg/kg intraperitoneal) [s]	citric acid-induced cough counts (number of coughs) ([1]; low concentration 1.5 mg/kg intraperitoneal, p<0.0001 vs saline control (13 coughs))	cough incubation period ([1]; low concentration 1.5 mg/kg intraperitoneal) [s]	citric acid-induced cough counts (number of coughs) ([1]; medium concentration 5 mg/kg intraperitoneal, p<0.05 vs saline control (13 coughs))	Ki (human α7 nAChR subtype) [nM]
C1=C(c2ccc(-c3ccccc3)nc2)C2CCN(C1)CC2 [4-(6-Phenyl-3-pyridyl)-1-azabicyclo[3.2.2]non-3-ene]	7	491	3	504	6	130
C1=C(c2ccc(-c3ccccc3)nn2)C2CCN(C1)CC2 [4-(6-Phenylpyridazin-3-yl)-1-azabicyclo[3.2.2]non-3-ene]						320
